For three molecules, IC50 results are on record in PubChem BioAssay AID1057 (University of Pittsburgh Molecular Library Screening Center, 2008).

Activity calls are given as the source filed them. How the calls were made is not given here.

In this experiment the target is Serine/threonine-protein kinase PLK1 (Homo sapiens) (UniProt P53350). Briefly: PLK1 polo-box domain peptide-binding inhibitors, SAR follow-up, biochemical, fluorescence polarization, synthesized analogs, concentration response (AID 1057). The note with it: Plk1 PBD fluorescence polarization peptide binding. Background: Polarisation of emitted light reports the rotation of a fluorescent probe.
Sequence of Serine/threonine-protein kinase PLK1 (Homo sapiens) (P53350 whole entry, looked up, the tested form may be a part): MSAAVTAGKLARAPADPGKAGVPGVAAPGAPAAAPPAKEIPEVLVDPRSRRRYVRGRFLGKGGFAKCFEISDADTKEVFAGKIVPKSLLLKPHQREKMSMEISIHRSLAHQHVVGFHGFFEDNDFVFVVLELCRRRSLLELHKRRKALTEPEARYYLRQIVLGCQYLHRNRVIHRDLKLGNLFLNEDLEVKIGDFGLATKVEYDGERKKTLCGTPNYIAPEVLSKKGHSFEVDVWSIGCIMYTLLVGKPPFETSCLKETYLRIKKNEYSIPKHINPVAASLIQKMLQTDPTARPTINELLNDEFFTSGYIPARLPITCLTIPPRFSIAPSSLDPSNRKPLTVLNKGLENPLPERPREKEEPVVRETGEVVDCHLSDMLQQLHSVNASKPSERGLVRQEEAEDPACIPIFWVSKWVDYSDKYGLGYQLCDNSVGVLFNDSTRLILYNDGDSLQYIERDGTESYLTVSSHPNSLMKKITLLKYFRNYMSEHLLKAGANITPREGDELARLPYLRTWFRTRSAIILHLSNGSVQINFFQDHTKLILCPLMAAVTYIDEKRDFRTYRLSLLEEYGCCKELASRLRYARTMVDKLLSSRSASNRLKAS

With `C/C(=N\NC(=O)c1ccncc1)c1c(O)[nH]c(=O)[nH]c1=O`, the IC50 (usually the point on the concentration scale where inhibition reaches its midpoint) was > 50 µM (inactive).

Take `Cc1cccc(N/N=C/c2c(O)[nH]c(=S)[nH]c2=O)c1`: the IC50 was > 50 µM (inactive).

Consider `CCOC(=O)CCCCCNC(=O)c1c(O)[nH]c(=O)[nH]c1=O`, for which the IC50 is > 50 µM (inactive).
